Read-outs that look alike come from different tables or passages of the source.
Tests used:
Format in all cases: in vivo
[1] = tested on: Beet Armyworm (Spodoptera exigua) ("BAW"), second instar larvae; assay: Bioassay on beet armyworm (BAW), 128-well diet tray assay; settings: Spodoptera exigua
Summary of the method: (§1)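 Second-instar larvae on diet in 128-well trays, covered and held at 25° C, 14:10 light-dark, for five to seven days. Percent mortality scored per well and averaged over eight wells; activity reported as a rating category.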

[2] = tested on: Cabbage Looper (Trichoplusia ni) ("CL"), second instar larvae; assay: Bioassay on cabbage looper (CL), 128-well diet tray assay; settings: Trichoplusia ni
Summary of the method: as §1

[3] = tested on: Green Peach Aphid ("GPA") (Myzus persicae), wingless adult and nymph stages; assay: Bioassay on green peach aphid (GPA), foliar spray on infested cabbage seedlings; settings: Myzus persicae, foliar, 72 h
Summary of the method: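 Values are corrected % control, 100*(X−Y)/X, from live aphid counts per plant under a microscope, treated versus solvent-check plants. Four infested seedlings (20-50 GPA each) per treatment were sprayed to runoff and kept three days near 25° C at ambient RH.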

[4] = read-out: BAW (Biological Results, rating)
[5] = read-out: CL (Biological Results, rating)
[6] = read-out: GPA (Biological Results, rating)

| Structure (SMILES) | pest or weed control at 50 µg/cm2 [1, 4] | pest or weed control at 50 µg/cm2 [2, 5] | pest or weed control at 200 µg/mL [3, 6] | pest or weed control at 50 µg/cm2 ([1]; read-out: BAW rating) | pest or weed control at 50 µg/cm2 ([2]; read-out: CL rating) | pest or weed control at 200 µg/mL ([3]; read-out: GPA rating) |
| --- | --- | --- | --- | --- | --- | --- |
| CN(C)c1ccc(OCCC(F)(F)F)c(N2C(=O)CS/C2=N\C(=O)Nc2ccc(-c3ncn(-c4ccc(OC(F)(F)F)cc4)n3)cc2F)c1 [Compound J105, (Z)-1-(3-(5-(Dimethylamino)-2-(3,3,3-trifluoropropoxy)phenyl)-4-oxothiazolidin-2-ylidene)-3-(2-fluoro-4-(1-(4-(trifluoromethoxy)phenyl)-1H-1,2,4-triazol-3-yl)phenyl)urea] | 50 to 100% | 50 to 100% | 0 to 80% | – | – | – |
| CCN(C(C)=O)c1ccc(C(C)C)c(N2C(=O)CS/C2=N\C(=O)Nc2ccc(-c3ncn(-c4ccc(OC(F)(F)F)cc4)n3)cc2F)c1 [Compound J189, (Z)-N-Ethyl-N-(3-(2-(((2-fluoro-4-(1-(4-(trifluoromethoxy)phenyl)-1H-1,2,4-triazol-3-yl)phenyl)carbamoyl)imino)-4-oxothiazolidin-3-yl)-4-isopropylphenyl)acetamide] | 50 to 100% | 50 to 100% | 0 to 80% | – | – | – |
| Cc1ccc(COCc2ccc(OC(F)(F)F)cc2)c(N2C(=O)CS/C2=N\C(=O)Nc2ccc(-c3ncn(-c4ccc(OC(F)(F)F)cc4)n3)cc2F)c1 [Compound J570, (Z)-1-(2-Fluoro-4-(1-(4-(trifluoromethoxy)phenyl)-1H-1,2,4-triazol-3-yl)phenyl)-3-(3-(5-methyl-2-(((4-(trifluoromethoxy)benzyl)oxy)methyl)phenyl)-4-oxothiazolidin-2-ylidene)urea] | – | – | – | 50 to 100% | 50 to 100% | 0 to 80% |
| Cc1ccc(-n2cnc(-c3ccc(NC(=O)/N=C4\SCC(=O)N4c4cc(C)ccc4OCCC(F)(F)F)c(F)c3)n2)cc1 [Compound J151, (Z)-1-(2-Fluoro-4-(1-(p-tolyl)-1H-1,2,4-triazol-3-yl)phenyl)-3-(3-(5-methyl-2-(3,3,3-trifluoropropoxy)phenyl)-4-oxothiazolidin-2-ylidene)urea] | 50 to 100% | 50 to 100% | 0 to 80% | – | – | – |
| COc1ccc(C(C)C)c(N2C(=O)CS/C2=N\C(=O)Nc2ccc(-c3ncn(-c4cccc(C(F)(F)F)c4)n3)cc2C)c1 [Compound J132, (Z)-1-(3-(2-Isopropyl-5-methoxyphenyl)-4-oxothiazolidin-2-ylidene)-3-(2-methyl-4-(1-(3-(trifluoromethyl)phenyl)-1H-1,2,4-triazol-3-yl)phenyl)urea] | 50 to 100% | 50 to 100% | 0 to 80% | – | – | – |
| CCOC(C)c1ccc(C)cc1N1C(=O)CS/C1=N\C(=O)Nc1ccc(-c2ncn(-c3ccc(OC(F)(F)F)cc3)n2)cc1C (stereo not drawn) [Compound J141, (Z)-1-(3-(2-(1-Ethoxyethyl)-5-methylphenyl)-4-oxothiazolidin-2-ylidene)-3-(2-methyl-4-(1-(4-(trifluoromethoxy)phenyl)-1H-1,2,4-triazol-3-yl)phenyl)urea] | 50 to 100% | 50 to 100% | 0 to 80% | – | – | – |
| Cc1ccc(COCC(F)(F)F)c(N2C(=O)CS/C2=N\C(=O)Nc2ccc(-c3ncn(-c4ccc(S(=O)(=O)C(F)(F)F)cc4)n3)cc2C)c1 [Compound J365, (Z)-1-(3-(5-Methyl-2-((2,2,2-trifluoroethoxy)methyl)phenyl)-4-oxothiazolidin-2-ylidene)-3-(2-methyl-4-(1-(4-((trifluoromethyl)sulfonyl)phenyl)-1H-1,2,4-triazol-3-yl)phenyl)urea] | – | – | – | 50 to 100% | 50 to 100% | 0 to 80% |
| CCOCc1ccc(C)cc1N1C(=O)CS/C1=N\C(=O)Nc1ccc(-c2ncn(-c3ccc(OC(F)(F)C(F)(F)F)cc3)n2)cc1F [Compound J663, (Z)-1-(3-(2-(Ethoxymethyl)-5-methylphenyl)-4-oxothiazolidin-2-ylidene)-3-(2-fluoro-4-(1-(4-(perfluoroethoxy)phenyl)-1H-1,2,4-triazol-3-yl)phenyl)urea] | – | – | – | 50 to 100% | 50 to 100% | 0 to 80% |
| CCc1cc(-c2ncn(-c3ccc(OC(F)(F)F)cc3)n2)ccc1NC(=O)/N=C1\SCC(=O)N1c1cc(C)ccc1C(C)OC (stereo not drawn) [Compound J74, (Z)-1-(2-Ethyl-4-(1-(4-(trifluoromethoxy)phenyl)-1H-1,2,4-triazol-3-yl)phenyl)-3-(3-(2-(1-methoxyethyl)-5-methylphenyl)-4-oxothiazolidin-2-ylidene)urea] | 50 to 100% | 50 to 100% | 0 to 80% | – | – | – |
| CCCc1ccc(N(C)C)cc1N1C(=O)CS/C1=N\C(=O)Nc1ccc(-c2ncn(-c3ccc(OC(F)(F)F)cc3)n2)cc1F [Compound J196, (Z)-1-(3-(5-(Dimethylamino)-2-propylphenyl)-4-oxothiazolidin-2-ylidene)-3-(2-fluoro-4-(1-(4-(trifluoromethoxy)phenyl)-1H-1,2,4-triazol-3-yl)phenyl)urea] | 50 to 100% | 50 to 100% | 0 to 80% | – | – | – |
| Cc1ccc(COCC(F)F)c(N2C(=O)CS/C2=N\C(=O)Nc2ccc(-c3cn(-c4ccc(S(=O)(=O)C(F)(F)F)cc4)cn3)cc2F)c1 [Compound J648, (Z)-1-(3-(2-((2,2-Difluoroethoxy)methyl)-5-methylphenyl)-4-oxothiazolidin-2-ylidene)-3-(2-fluoro-4-(1-(4-((trifluoromethyl)sulfonyl)phenyl)-1H-imidazol-4-yl)phenyl)urea] | – | – | – | 50 to 100% | 50 to 100% | 0 to 80% |
| COC(c1ccc(C)cc1N1C(=O)CS/C1=N\C(=O)Nc1ccc(-c2cn(-c3ccc(S(=O)(=O)C(F)(F)F)cc3)cn2)cc1F)C(F)(F)F (stereo not drawn) [Compound J649, (Z)-1-(2-Fluoro-4-(1-(4-((trifluoromethyl)sulfonyl)phenyl)-1H-imidazol-4-yl)phenyl)-3-(3-(5-methyl-2-(2,2,2-trifluoro-1-methoxyethyl)phenyl)-4-oxothiazolidin-2-ylidene)urea] | – | – | – | 50 to 100% | 50 to 100% | 0 to 80% |
| COC(C)c1ccc(C)cc1N1C(=O)CS/C1=N\C(=O)Nc1ccc(-c2ncn(-c3ccc(S(=O)(=O)C(F)(F)F)cc3)n2)cc1C (stereo not drawn) [Compound J362, (Z)-1-(3-(2-(1-Methoxyethyl)-5-methylphenyl)-4-oxothiazolidin-2-ylidene)-3-(2-methyl-4-(1-(4-((trifluoromethyl)sulfonyl)phenyl)-1H-1,2,4-triazol-3-yl)phenyl)urea] | – | – | – | 50 to 100% | 50 to 100% | 0 to 80% |
| N#Cc1ccc(OCCC(F)(F)F)c(N2C(=O)CS/C2=N\C(=O)Nc2ccc(-c3ncn(-c4ccc(OC(F)(F)F)cc4)n3)cc2F)c1 [Compound J103, (Z)-1-(3-(5-Cyano-2-(3,3,3-trifluoropropoxy)phenyl)-4-oxothiazolidin-2-ylidene)-3-(2-fluoro-4-(1-(4-(trifluoromethoxy)phenyl)-1H-1,2,4-triazol-3-yl)phenyl)urea] | 50 to 100% | 50 to 100% | 0 to 80% | – | – | – |
| COc1ccc(C(C)C)c(N2C(=O)CS/C2=N\C(=O)Nc2ccc(-c3ncn(-c4cccc(OC(F)(F)F)c4)n3)cc2C)c1 [Compound J136, (Z)-1-(3-(2-Isopropyl-5-methoxyphenyl)-4-oxothiazolidin-2-ylidene)-3-(2-methyl-4-(1-(3-(trifluoromethoxy)phenyl)-1H-1,2,4-triazol-3-yl)phenyl)urea] | 50 to 100% | 50 to 100% | 0 to 80% | – | – | – |
| Cc1ccc(OCCCC(F)(F)F)c(N2C(=O)CS/C2=N\C(=O)Nc2ccc(-c3ncn(-c4ccc(SC(F)(F)F)cc4)n3)cc2F)c1 [Compound J225, (Z)-1-(2-Fluoro-4-(1-(4-((trifluoromethyl)thio)phenyl)-1H-1,2,4-triazol-3-yl)phenyl)-3-(3-(5-methyl-2-(4,4,4-trifluorobutoxy)phenyl)-4-oxothiazolidin-2-ylidene)urea] | 50 to 100% | 50 to 100% | 0 to 80% | – | – | – |
| Cc1ccc(OCCC(F)(F)F)c(N2C(=O)CS/C2=N\C(=O)Nc2ccc(-c3ncn(-c4cccc(C(F)(F)F)c4)n3)cc2C)c1 [Compound J134, (Z)-1-(3-(5-Methyl-2-(3,3,3-trifluoropropoxy)phenyl)-4-oxothiazolidin-2-ylidene)-3-(2-methyl-4-(1-(3-(trifluoromethyl)phenyl)-1H-1,2,4-triazol-3-yl)phenyl)urea] | 50 to 100% | 50 to 100% | 0 to 80% | – | – | – |
| CCOC(C)c1ccc(C)cc1N1C(=O)CS/C1=N\C(=O)Nc1ccc(-c2ncn(-c3ccc(SC(F)(F)F)cc3)n2)cc1F (stereo not drawn) [Compound J230, (Z)-1-(3-(2-(1-Ethoxyethyl)-5-methylphenyl)-4-oxothiazolidin-2-ylidene)-3-(2-fluoro-4-(1-(4-((trifluoromethyl)thio)phenyl)-1H-1,2,4-triazol-3-yl)phenyl)urea] | 50 to 100% | 50 to 100% | 0 to 80% | – | – | – |
